Experimental data from ChEMBL document CHEMBL1121805, “Nucleosides containing chemically reactive groups” (1981).

Key:
[1] = system: L1210; assay: Percent inhibition of incorporation of [Me-3H]-Thymidine into DNA of L1210 cells; assay type: functional, Mus musculus
[2] = system: L1210; assay: Percent inhibition of incorporation of [8-14C]-Adenine into DNA of L1210 cells; assay type: functional, Mus musculus
[3] = system: L1210; assay: Percent inhibition of incorporation of [5-3H]-Uridine into DNA of L1210 cells; assay type: functional, Mus musculus
[4] = system: L1210; assay: Cytotoxicity was evaluated against the L1210 cell lines in vitro; assay type: functional; settings: Mus musculus, read-out: ED50 (the source's name)

| SMILES | Inhibition [1] [%] | Inhibition [2] [%] | Inhibition [3] [%] | EC50 [4] [µg/mL] |
| --- | --- | --- | --- | --- |
| Cc1cn(C2CC(O)C(CCNC(=O)CBr)O2)c(=O)[nH]c1=O (centres undefined) | 52 | 67 | 60 |  |
| O=C(CBr)NC[C@H]1OC(n2cnc3c(O)ncnc32)[C@H](O)[C@@H]1O (some centres undefined) |  |  |  | < 5 |
